Ends that are not written are not given here.
Tested on: B6SJL mice
Conditions: intravenous injection of pTG11236/peptide complexes, dead mice per group of five
Experimental: Indicated amounts of the luciferase expression plasmid pTG11236 were mixed with ppTG1 and /or pcTG90/DOPE. […] Muscles, tumors or organs were recovered at the indicated points of time, macerated and tested for luciferase activity with the luciferase assay kit from Promega.
After 20 min incubation at room temperature, the complexes were intravenously injected into B6SJL mice. Mice were sacrificed at day 1. The lungs were recovered, total protein was extracted and luciferase activity was analysed.
The potential of gene transfer with mono-component peptide vectors was investigated in vivo. […] Five mice per group were intravenously injected, the animals were sacrificed at day 1 after injection. Lungs were tested for luciferase activity.

## GLFRALLRLLRSLWRLLLRA [ppTG20]
  toxicity: less toxic than ppTG1
